Measurements reported in patent US3951995A, “Method for industrial production of N-substituted dipropylacetamides” (Laboratorios Made, S.A., priority 1973, dated 1976).

Legend:
[1] = system: convulsions and lethal effect of cardiazol; assay: Anti-convulsant activity against cardiazol; format: in vivo, albino rats I.C.R. Swiss; details: for number of animals with convulsions / number of dead animals: after 30 minutes cardiazol 1 mg/rat, 10 rats per lot
Description: There have been employed 4 lots of 10 rats per lot, which received:
Lot (1): I 180 mg/kg and after 30 minutes cardiazol 1 mg/rat.
Lot (2): II 35 mg/kg and after 30 minutes cardiazol 1 mg/rat.
Lot (3): III 18 mg/kg and after 30 minutes cardiazol 1 mg/rat.

[2] = system: hypnotic effect of the pentobarbital; assay: Potentiation of barbiturates (sodium pentobarbital hypnotic effect); format: in vivo, albino rats I.C.R. Swiss; details: for Asleep after 180 minutes (number of animals) / Awake after 180 minutes (number of animals): 30 min before sodium pentobarbital 60 mg/kg i.p., of 20; for potentiation of the hypnotic effect of the pentobarbital (in words): sodium pentobarbital 60 mg/kg i.p., I 180, II 35, III 18, Diazepam 3,6 mg/kg
Description: Albino rats I.C.R. Swiss weighing 25 ± 2 g have been used.
Lot (1): Sodium pentobarbital 60 mg/kg + I (180 mg/kg).
Lot (2): Sodium pentobarbital 60 mg/kg + II (35 mg/kg).
Lot (3): Sodium pentobarbital 60 mg/kg + III (18 mg/kg).
Lot (5): Sodium pentobarbital 60 mg/kg + distilled H2 O (control lot).
The number of animals awake after 180 minutes after the administration of the barbiturate are noted. The following results have been obtained according to the statistic test of Chi^2 : […]

[3] = Acute toxicity, lethal dose 50 (LD50), intraperitoneal; parameters: species or system albino rats I.C.R. Swiss; details: rat, in vivo, ip
Excerpt: The lethal dose 50 (LD50) has been determined on albino rats I.C.R. Swiss, of both sexes, weighing 24 ± 2 g.

[4] = II 35 mg/kg, cardiazol 1 mg/rat

## CCCC(CCC)C(=O)NCc1ccccn1 [Compound I, N-(2-picolyl)-dipropylacetamide]
[1]; I 180 mg/kg, control 10
  number of animals with convulsions: 9
  number of dead animals: 7
[1]; I 180 mg/kg, cardiazol 1 mg/rat
  protection of the lethal effect of the cardiazol: 30%
[2]; I 180 mg/kg, control 1, p<0.001 (Chi^2)
  Asleep after 180 minutes (number of animals): 17
[2]; I 180 mg/kg, control 19, p<0.001 (Chi^2)
  Awake after 180 minutes (number of animals): 3
[2]
  potentiation of the hypnotic effect of the pentobarbital (in words): potentiates clearly the hypnotic effect of the pentobarbital
[3]
  LD50: > 1600 mg/kg

## CCCC(CCC)C(=O)NCc1cccnc1 [Compound II, N-(3-picolyl)-dipropylacetamide]
[1]; II 35 mg/kg, control 10
  number of animals with convulsions: 0
  number of dead animals: 0
[1]; [4]
  protection of the convulsions: 100%
  protection of the lethal effect of the cardiazol: 100%
[2]; II 35 mg/kg, control 1, p<0.001 (Chi^2)
  Asleep after 180 minutes (number of animals): 14
[2]; II 35 mg/kg, control 19, p<0.001 (Chi^2)
  Awake after 180 minutes (number of animals): 6
[2]
  potentiation of the hypnotic effect of the pentobarbital (in words): potentiates clearly the hypnotic effect of the pentobarbital
[3]
  LD50: 95 mg/kg

## CCCC(CCC)C(=O)NCc1ccncc1 [Compound III, N-(4-picolyl) - dipropylacetamide]
[1]; III 18 mg/kg, control 0
  number of dead animals: 0
[1]; III 18 mg/kg, control 5
  number of animals with convulsions: 1
[1]; III 18 mg/kg, cardiazol 1 mg/rat
  protection of the convulsion effect of cardiazol: 40%
[2]; III 18 mg/kg, control 4, p<0.001 (Chi^2)
  Asleep after 180 minutes (number of animals): 19
[2]; III 18 mg/kg, control 16, p<0.001 (Chi^2)
  Awake after 180 minutes (number of animals): 1
[2]
  potentiation of the hypnotic effect of the pentobarbital (in words): potentiates clearly the hypnotic effect of the pentobarbital
[3]
  LD50: 264 mg/kg

## CN1C(=O)CN=C(c2ccccc2)c2cc(Cl)ccc21 [Diazepam, reference compound]
[1]; general statement
  anti-convulsant / anti-epileptic activity (in words): Results have been positive with cardiazol
[2]; Diazepam 3,6 mg/kg, control 4, p<0.02 (Chi^2)
  Asleep after 180 minutes (number of animals): 15
[2]; Diazepam 3,6 mg/kg, control 16, p<0.02 (Chi^2)
  Awake after 180 minutes (number of animals): 5
[2]
  potentiation of the hypnotic effect of the pentobarbital (in words): potentiates clearly the hypnotic effect of pentobarbital, but not as much as the three compounds according to this invention
